For the assay, the system named is PAO1. The experiment in a line: Salt sensitivity assay. The class given is cell-based, P. aeruginosa.

By MBC is commonly meant the smallest concentration meeting the test's criterion for killing. What is called MIC is the lowest concentration found to suppress growth.

In the case of Polymyxin B, the MBC is, setting by setting: (CaCl2 (2.5 mM)) 2 µM; (FeCl3 (4 μM)) 1 µM; (KCl (4.5 mM)) 1 µM; (MgCl2 (1 mM)) 1 µM; (NH4Cl (6 μM)) 1 µM; (NaCl (150 mM)) 0.5 µM. The MBC (ZnCl2 (8 mM)) was found to be 1 µM. Besides, the MIC is, setting by setting: (CaCl2 (2.5 mM)) 2 µM; (FeCl3 (4 μM)) 1 µM; (KCl (4.5 mM)) 1 µM; (MgCl2 (1 mM)) 1 µM; (NH4Cl (6 μM)) 1 µM; (NaCl (150 mM)) 0.5 µM. Under “ZnCl2 (8 mM)”, the MIC worked out at 1 µM.

For the origin of these results see PMC11322164 (Scientific Reports, 2024).
